Structures can show the parent of a compound that is named as a salt.
What follows are compounds tested against T1, TbINO1 (Trypanosoma brucei brucei, UniProt Q5QQ46) (assay: biochemical). Details: read-out: Tb Ino1 Tm Shift [˚C].
T1 sequence (Q5QQ46 1-528): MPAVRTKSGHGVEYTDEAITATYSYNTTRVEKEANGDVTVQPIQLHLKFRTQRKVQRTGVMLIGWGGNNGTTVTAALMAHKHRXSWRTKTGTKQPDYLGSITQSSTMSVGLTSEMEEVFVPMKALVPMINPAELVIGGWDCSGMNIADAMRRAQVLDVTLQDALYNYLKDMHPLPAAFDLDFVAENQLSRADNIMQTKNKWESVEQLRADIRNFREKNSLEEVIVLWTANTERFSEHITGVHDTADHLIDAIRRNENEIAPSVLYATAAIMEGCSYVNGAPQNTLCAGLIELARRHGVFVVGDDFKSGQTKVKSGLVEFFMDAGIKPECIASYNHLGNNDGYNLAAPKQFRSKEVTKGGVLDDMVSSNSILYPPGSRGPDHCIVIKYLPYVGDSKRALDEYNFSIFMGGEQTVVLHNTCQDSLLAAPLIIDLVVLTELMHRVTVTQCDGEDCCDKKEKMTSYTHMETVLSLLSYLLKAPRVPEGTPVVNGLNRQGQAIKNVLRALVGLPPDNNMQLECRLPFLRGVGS
Type: binding

SMILES | ΔTm at 1000 µM [°C]
O=C(O)c1cccc(-c2ccncc2)c1 [compound 614, 3‐pyrid‐4‐ylbenzoic acid] | 0.46 ± 0.12
O=C(O)c1cncc(-c2ccccc2)c1 [compound 615, 5‐phenylnicotinic acid] | 1.28 ± 0.09
OCc1ccc(N2CCOCC2)s1 [compound 618, (5‐morpholinothien‐2‐yl)methanol] | 1.12 ± 0.11
CC(C)(C)OC(=O)Nc1ccsc1 [compound 619, tert‐butyl N‐(3‐thienyl)carbamate] | 0.21 ± 0.07

Next, values leading:

ΔTm at 1000 µM [°C] | SMILES
1.06 ± 0.07 | Cc1nc(-c2ccc(C#N)cc2)cs1 [compound 625, 4‐(2‐methyl‐1,3‐thiazol‐4‐yl)benzonitrile]
0.84 ± 0.08 | COC(=O)c1ccccc1-n1cccc1 [compound 628, methyl 2‐(1H‐pyrrol‐1‐yl)benzoate]
0.38 ± 0.04 | Cc1cc(C(=O)O)c(-c2ccccc2)o1 [compound 635, 5‐methyl‐2‐phenyl‐3‐furoic acid]
0.18 ± 0.05 | N#Cc1ccc(OC2CCOCC2)cc1 [compound 645, 4‐(tetrahydropyran‐4‐yloxy)benzonitrile]
0.25 ± 0.08 | O=C(O)c1ccc(-c2ccsc2)cc1 [compound 648, 4‐(3‐thienyl)benzoic acid]
0.91 ± 0.07 | O=C(O)c1ccc(-c2ccccn2)s1 [compound 661, 5‐(2‐pyridyl)thiophene‐2‐carboxylic acid]
0.36 ± 0.06 | O=C(O)c1ccc(-c2nccs2)cc1 [compound 662, 4‐(1,3‐thiazol‐2‐yl)benzoic acid]
1.23 ± 0.07 | O=C(O)c1cccc(N2CCCCC2)c1 [compound 663, 3‐piperidinobenzoic acid]
1.06 ± 0.07 | N#Cc1ccnc(N2CCSCC2)c1 [compound 668, 2‐thiomorpholinoisonicotinonitrile]

Same assay, conditions: read-out: TbIno1 Tm shift [°C]

ΔTm at 1000 µM [°C] | SMILES
2.49 ± 0.04 | O=C1CCSc2ccc(Cl)cc21 [compound 609, 6-chloro-3,4-dihydro-2H-1-benzothiin-4-one]
2.08 ± 0.1 | CC(C)(C)OC(=O)Nc1cccs1 [compound 620, tert-butyl N-(2-thienyl)carbamate]

SMILES | ΔTm at 1000 µM [°C]
NCc1nc2ccccc2s1 [compound 626, 1,3-benzothiazol-2-ylmethylamine hydrochloride] | 2.03 ± 0.08

These compounds were tested on HeLa cells (assay: cells). Details: Homo sapiens, HeLa, 65 h, read-out: HeLa Cells Alamar Blue.
Procedure, shortened: (§1)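 Viability by Alamar Blue (5 h) after ~65 h drug treatment; seeding density 2 × 10^4 cells/well in DMEM supplemented with 10% FCS and 2 mM L-Glutamine.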

SMILES | viability at 500 µM [%]
O=C1CCSc2ccc(Cl)cc21 [compound 609, 6-chloro-3,4-dihydro-2H-1-benzothiin-4-one] | 74.5 ± 13.7
O=C(O)c1cccc(-c2ccncc2)c1 [compound 614, 3‐pyrid‐4‐ylbenzoic acid] | 81.2 ± 15.9
O=C(O)c1cncc(-c2ccccc2)c1 [compound 615, 5‐phenylnicotinic acid] | 80.4 ± 11.7
OCc1ccc(N2CCOCC2)s1 [compound 618, (5‐morpholinothien‐2‐yl)methanol] | 70.4 ± 13.2
CC(C)(C)OC(=O)Nc1ccsc1 [compound 619, tert‐butyl N‐(3‐thienyl)carbamate] | 80 ± 17.5
CC(C)(C)OC(=O)Nc1cccs1 [compound 620, tert-butyl N-(2-thienyl)carbamate] | 71.3 ± 13.6
Cc1nc(-c2ccc(C#N)cc2)cs1 [compound 625, 4‐(2‐methyl‐1,3‐thiazol‐4‐yl)benzonitrile] | 74.1 ± 7.1
COC(=O)c1ccccc1-n1cccc1 [compound 628, methyl 2‐(1H‐pyrrol‐1‐yl)benzoate] | 70.4 ± 14
Cc1cc(C(=O)O)c(-c2ccccc2)o1 [compound 635, 5‐methyl‐2‐phenyl‐3‐furoic acid] | 17.7 ± 16.2
N#Cc1ccc(OC2CCOCC2)cc1 [compound 645, 4‐(tetrahydropyran‐4‐yloxy)benzonitrile] | 77.4 ± 15.8
O=C(O)c1ccc(-c2ccsc2)cc1 [compound 648, 4‐(3‐thienyl)benzoic acid] | 105 ± 8.2
O=C(O)c1ccc(-c2ccccn2)s1 [compound 661, 5‐(2‐pyridyl)thiophene‐2‐carboxylic acid] | 95.3 ± 3.5
O=C(O)c1ccc(-c2nccs2)cc1 [compound 662, 4‐(1,3‐thiazol‐2‐yl)benzoic acid] | 102 ± 7.2
O=C(O)c1cccc(N2CCCCC2)c1 [compound 663, 3‐piperidinobenzoic acid] | 97.9 ± 1.5
N#Cc1ccnc(N2CCSCC2)c1 [compound 668, 2‐thiomorpholinoisonicotinonitrile] | 80.3 ± 19.6

Same assay, conditions: Homo sapiens, HeLa, 65 h, read-out: HeLa Cells Alamar Blue (% survival)

SMILES | viability at 500 µM [%]
O=C1CCSc2ccc(Cl)cc21 [compound 609, 6-chloro-3,4-dihydro-2H-1-benzothiin-4-one] | 74.5 ± 13.7
CC(C)(C)OC(=O)Nc1cccs1 [compound 620, tert-butyl N-(2-thienyl)carbamate] | 71.3 ± 13.6

Same assay, conditions: Homo sapiens, HeLa, 65 h, read-out: HeLa Cells Alamar Blue (% survival), compound 0.5 mM; percentage of controls

SMILES | viability at 500 µM [%]
NCc1nc2ccccc2s1 [compound 626, 1,3-benzothiazol-2-ylmethylamine hydrochloride] | 95.1 ± 15.5

Same assay, conditions: Homo sapiens, HeLa, 65 h, read-out: HeLa Cells Alamar Blue, Supplementary Table 1; compound 0.5 mM; percentage of controls; mean ± SD (n=3) or SE (n=2)

SMILES | viability at 500 µM [%]
NCc1nc2ccccc2s1 [compound 626, 1,3-benzothiazol-2-ylmethylamine hydrochloride] | 95.1 ± 15.5

The compounds below were run on A549 cells (assay: Cytotoxicity against A549 cells, Alamar Blue). Details: Homo sapiens, A549, 65 h; Supplementary Table 1; compound 0.5 mM; percentage of controls (n=1).
Type: cell-based
Procedure, shortened: as §1

SMILES | viability at 500 µM [%]
O=C1CCSc2ccc(Cl)cc21 [compound 609, 6-chloro-3,4-dihydro-2H-1-benzothiin-4-one] | 105
O=C(O)c1cccc(-c2ccncc2)c1 [compound 614, 3‐pyrid‐4‐ylbenzoic acid] | 66.3
O=C(O)c1cncc(-c2ccccc2)c1 [compound 615, 5‐phenylnicotinic acid] | 75.6
OCc1ccc(N2CCOCC2)s1 [compound 618, (5‐morpholinothien‐2‐yl)methanol] | 76.3
CC(C)(C)OC(=O)Nc1ccsc1 [compound 619, tert‐butyl N‐(3‐thienyl)carbamate] | 74.9
CC(C)(C)OC(=O)Nc1cccs1 [compound 620, tert-butyl N-(2-thienyl)carbamate] | 109
Cc1nc(-c2ccc(C#N)cc2)cs1 [compound 625, 4‐(2‐methyl‐1,3‐thiazol‐4‐yl)benzonitrile] | 79.4
NCc1nc2ccccc2s1 [compound 626, 1,3-benzothiazol-2-ylmethylamine hydrochloride] | 85.7
COC(=O)c1ccccc1-n1cccc1 [compound 628, methyl 2‐(1H‐pyrrol‐1‐yl)benzoate] | 85.1
Cc1cc(C(=O)O)c(-c2ccccc2)o1 [compound 635, 5‐methyl‐2‐phenyl‐3‐furoic acid] | 90.1
N#Cc1ccc(OC2CCOCC2)cc1 [compound 645, 4‐(tetrahydropyran‐4‐yloxy)benzonitrile] | 102
O=C(O)c1ccc(-c2ccsc2)cc1 [compound 648, 4‐(3‐thienyl)benzoic acid] | 149
O=C(O)c1ccc(-c2ccccn2)s1 [compound 661, 5‐(2‐pyridyl)thiophene‐2‐carboxylic acid] | 94.1
O=C(O)c1ccc(-c2nccs2)cc1 [compound 662, 4‐(1,3‐thiazol‐2‐yl)benzoic acid] | 100
O=C(O)c1cccc(N2CCCCC2)c1 [compound 663, 3‐piperidinobenzoic acid] | 104
N#Cc1ccnc(N2CCSCC2)c1 [compound 668, 2‐thiomorpholinoisonicotinonitrile] | 98.5
